Laboratory results reported in ChEMBL document CHEMBL4828718, “Synthesis and Antifungal Activity Evaluation of Phloeodictine Analogues” (J Nat Prod, 2021).
pIC50: −log10 of the molar value. Activity calls are given as the source filed them. The rule behind the calls is not given here.

Legend:
Cryptococcus neoformans [1] = assay: Antifungal activity against Cryptococcus neoformans ATCC 90113 assessed as fungal growth inhibition incubated for 72 hrs by alamar blue assay; format: functional
Cryptococcus neoformans [2] = assay: Fungicidal activity against Cryptococcus neoformans ATCC 90113 assessed as fungal growth inhibition incubated for 72 hrs by alamar blue assay; format: functional
Candida albicans [3] = assay: Antifungal activity against Candida albicans ATCC 90028 assessed as fungal growth inhibition incubated for 18 to 24 hrs by alamar blue assay; format: functional
Candida albicans [4] = assay: Fungicidal activity against Candida albicans ATCC 90028 assessed as fungal growth inhibition incubated for 18 to 24 hrs by alamar blue assay; format: functional
Nakaseomyces glabratus [5] = assay: Antifungal activity against Candida glabrata ATCC 90030 assessed as fungal growth inhibition incubated for 18 to 24 hrs by alamar blue assay; format: functional
Nakaseomyces glabratus [6] = assay: Fungicidal activity against Candida glabrata ATCC 90030 assessed as fungal growth inhibition incubated for 18 to 24 hrs by alamar blue assay; format: functional
Pichia kudriavzevii [7] = assay: Antifungal activity against Candida krusei ATCC 6258 assessed as fungal growth inhibition incubated for 18 to 24 hrs by alamar blue assay; format: functional
Pichia kudriavzevii [8] = assay: Fungicidal activity against Candida krusei ATCC 6258 assessed as fungal growth inhibition incubated for 18 to 24 hrs by alamar blue assay; format: functional
Aspergillus fumigatus [9] = assay: Antifungal activity against Aspergillus fumigatus ATCC 90906 assessed as fungal growth inhibition incubated for 72 hrs by alamar blue assay; format: functional
Aspergillus fumigatus [10] = assay: Fungicidal activity against Aspergillus fumigatus ATCC 90906 assessed as fungal growth inhibition incubated for 72 hrs by alamar blue assay; format: functional
Vero = assay: Cytotoxicity against African green monkey Vero cells assessed as reduction in cell viability incubated for 48 hrs by neutral red dye based assay; parameters: species or system Chlorocebus sabaeus; settings: Chlorocebus sabaeus, Vero, 48 h
[11] = Cryptococcus neoformans, ATCC 90113, 72 h, read-out: MIC
[12] = Cryptococcus neoformans, ATCC 90113, 72 h, read-out: MFC
[13] = Candida albicans, ATCC 90028, time 18-24 hrs, read-out: MIC
[14] = Candida albicans, ATCC 90028, time 18-24 hrs, read-out: MFC
[15] = Nakaseomyces glabratus, ATCC 90030, time 18-24 hrs, read-out: MIC
[16] = Nakaseomyces glabratus, ATCC 90030, time 18-24 hrs, read-out: MFC
[17] = Pichia kudriavzevii, ATCC 6258, time 18-24 hrs, read-out: MIC
[18] = Pichia kudriavzevii, ATCC 6258, time 18-24 hrs, read-out: MFC
[19] = Aspergillus fumigatus, ATCC 90906, 72 h, read-out: MIC
[20] = Aspergillus fumigatus, ATCC 90906, 72 h, read-out: MFC

| SMILES | MIC (Cryptococcus neoformans [1]; [11]) | MFC (Cryptococcus neoformans [2]; [12]) | MIC (Candida albicans [3]; [13]) | MFC (Candida albicans [4]; [14]) | MIC (Nakaseomyces glabratus [5]; [15]) | MFC (Nakaseomyces glabratus [6]; [16]) | MIC (Pichia kudriavzevii [7]; [17]) | MFC (Pichia kudriavzevii [8]; [18]) | MIC (Aspergillus fumigatus [9]; [19]) | MFC (Aspergillus fumigatus [10]; [20]) | pIC50 (Vero) | further results |
| --- | --- | --- | --- | --- | --- | --- | --- | --- | --- | --- | --- | --- |
| CCCCCCCCCCCCCCC1(O)C(C)=C(C)C2=[N+](Cc3ccc(F)cc3F)CCCN21 (stereo not drawn) | 0.88 µM | 1.1 µM | 3.7 µM | 3.7 µM | 1.8 µM | 1.8 µM | 1.8 µM | 1.8 µM | 3 µM | 3.7 µM | 4.55 | – |
| CCCCCCCCCCCCCCC1(O)C(C)=C(C)C2=[N+](Cc3ccc(F)cc3)CCCN21 (stereo not drawn) | 1.5 µM | 1.5 µM | 6.7 µM | 6.7 µM | 2.2 µM | 2.2 µM | 2.2 µM | 2.2 µM | 3.1 µM | 3.1 µM | 4.48 | – |
| CCCCCCCCCCCCCCC1(O)C(C)=C(C)C2=[N+](C)CCCN21 (stereo not drawn) | 0.99 µM | 2.4 µM | 5 µM | 6.5 µM | 4.2 µM | 5 µM | 2 µM | 2 µM | 5 µM | 5 µM | 4.41 | – |
| CCCCCCCCCCCCCCC1(O)C(C)=C(C)C2=[N+](CC(=O)NCCCC)CCCN21 (stereo not drawn) | 1.8 µM | 1.8 µM | 7.5 µM | 10 µM | 5.2 µM | 5.9 µM | 3.8 µM | 3.8 µM | 7.5 µM | 7.5 µM | 4.35 | – |
| CCCCCCCCCCCCCCC1(O)c2ccccc2C2=[N+](C)CCCN21 (stereo not drawn) | 6.4 µM | 6.4 µM | 4.3 µM | 4.3 µM | 13 µM | 16 µM | 13 µM | 13 µM | 35 µM | 35 µM | 4.38 | – |
| CCCCCCCCCCCCCCC1(O)C(C)=C(C)C2=[N+](C/C=C/c3ccccc3)CCCN21 (stereo not drawn) | 1.4 µM | 4.1 µM | 3.8 µM | 3.8 µM | 2.7 µM | 4.1 µM | 3 µM | 3.8 µM | 4.5 µM | 5.9 µM | 4.42 | – |
| CCCCCCCCCCCCCCC1(O)C(C)=C(C)C2=[N+](CC(=O)NCCCN)CCCN21 (stereo not drawn) | 3.8 µM | 3.8 µM | 12 µM | 18 µM | 12 µM | 15 µM | 7.5 µM | 12 µM | 20 µM | 30 µM | < 4.35 | – |
| CCCCCCCCCCCCCCc1c(C)c(C)cn1CCCNCc1ccccc1 | – | – | – | – | – | – | – | – | – | – | 4.38 | MIC (Cryptococcus neoformans [1]): inactive; MFC (Cryptococcus neoformans [2]): inactive; MIC (Candida albicans [3]; time 18-24 hrs): inactive; MFC (Candida albicans [4]; time 18-24 hrs): inactive; MIC (Nakaseomyces glabratus [5]; time 18-24 hrs): inactive; MFC (Nakaseomyces glabratus [6]; time 18-24 hrs): inactive; MIC (Pichia kudriavzevii [7]; time 18-24 hrs): inactive; MFC (Pichia kudriavzevii [8]; time 18-24 hrs): inactive; MIC (Aspergillus fumigatus [9]): inactive; MFC (Aspergillus fumigatus [10]): inactive |
| CCCCCCCCCCCCCCC1(O)C(C)=C(C)C2=[N+](Cc3ccc(OC)cc3)CCCN21 (stereo not drawn) | 1.1 µM | 1.4 µM | 3.7 µM | 3.7 µM | 3 µM | 3 µM | 1.8 µM | 2.7 µM | 3.7 µM | 5.1 µM | 4.62 | – |
| CCCCCCCCCCCCCCC1(O)C(C)=C(C)C2=[N+](CC(=O)NCCCNC(=O)OC(C)(C)C)CCCN21 (stereo not drawn) | 3.8 µM | 3.8 µM | 14 µM | 14 µM | 7.6 µM | 14 µM | 5 µM | 5 µM | 10 µM | 15 µM | < 4.42 | – |
| CCCCCCCCCCCCCCC1(O)C(C)=C(C)C2=[N+](Cc3ccc(Cl)cc3)CCCN21 (stereo not drawn) | 3.7 µM | 3.7 µM | 3.7 µM | 3.7 µM | 2.1 µM | 2.1 µM | 2.1 µM | 2.1 µM | 4.4 µM | 4.4 µM | 4.38 | – |
| CCCCCCCCCCCCCCC1(O)C=CC2=[N+](C)CCCN21 (stereo not drawn) | 0.21 µM | 0.21 µM | 5.2 µM | 5.2 µM | 1.7 µM | 1.7 µM | 2.1 µM | 2.1 µM | 4.4 µM | 4.4 µM | 4.77 | – |
| CCCCCCCCCCCCCCC1(O)C(C)=C(C)C2=[N+](Cc3ccccc3)CCCN21 (stereo not drawn) | 1.5 µM | 1.5 µM | 3.9 µM | 3.9 µM | 2.2 µM | 2.2 µM | 2.2 µM | 2.2 µM | 4.7 µM | 4.7 µM | 4.60 | – |
